From patent publication US20240358721A1, “GASDERMIN-D INHIBITORS AND USES THEREOF FOR TREATING PULMONARY VASO-OCCLUSION” (UNIVERSITY OF PITTSBURGH-OF THE COMMONWEALTH SYSTEM OF …, priority 2021, published 2024)
“Also recorded” adds a separate entry of the source.

Tested on: SCD mice
Test: qFILM assessment of pulmonary vaso-occlusion in SCD mice IV administered oxy-Hb
Assay type: in vivo, mouse
Conditions: LDC7559 10 mg/kg, Z-VAD-FMK 0.004 μmol/kg
Excerpt: Quantitative fluorescence intravital lung microscopy (qFILM) was used to assess the absence or presence of platelet-neutrophil aggregate mediated pulmonary vaso-occlusion. Pulmonary microcirculation (pseudo-colored purple), neutrophils (red) and platelets (pseudo-colored green) were labeled in vivo by IV administration of FITC dextran, AF546-anti-Ly6G Ab and V450-anti-CD49b Ab, respectively. […] White arrows denote the direction of blood flow within the pulmonary arterioles. Alveoli are marked with asterisks. Scale bars 20 μm. The diameter of pulmonary arteriole in B-E is ˜22 μm, 32 μm, 31.5 μm, and 31 μm, respectively. […] Refer Online Data Supplement for details. […] The data for mice with SCD IV administered 10 oxy-Hb (n=5 mice; 75 FOVs) are included as black bars in FIGS. 1N and 1O for relative comparison. qFILM FOV size ˜65 536 μm^2. Data represent mean ±SE and are compared using Student t test. *P<0.05 (FIG. 1P) Schematic showing the main findings of the study. The sterile inflammatory milieu (DAMPs, IFN-I signaling, and ROS) in SCD promotes caspase-4 (humans) or caspase-11 (mouse)-dependent cleavage of neutrophil GSDMD into the active form GSDMD-NT, leading to the shedding of NETs in the liver microcirculation. Once shed, these NETs are carried by the blood as cNETs to the lung, where they promote neutrophil-platelet aggregation in the pulmonary arterioles, leading to PVO and lung injury (acute chest syndrome).
Intravital lung microscopy (experimental scheme shown in FIG. 1A) was conducted in live mice to assess whether preventing liver-to-lung embolization of cNETs by inhibiting or deleting GSDMD-signaling leads to amelioration of pulmonary vaso-occlusion. Although large neutrophil-platelet aggregates (marked with dotted ellipses) were seen occluding the arteriolar bottle-necks, leading to impaired blood flow in the lung of SCD mice IV administered 10 μmole/kg oxy-Hb (FIG. 1B), such aggregates were rare in the lung of SCD mice IV administered 10 μmole/kg oxy-Hb with 0.004 μmol/kg pan-caspase inhibitor Z-VAD-FMK (FIG. 1C) or 10 mg/kg GSDMD-NT inhibitor LDC7559 (FIG. 1D) or 20 mg/kg GSDMD-NT inhibitor Necrosulfonamide (FIG. 1E). […] The twofold higher dose of 20 μmole/kg IV oxy-Hb also led to the development of lung vaso-occlusion in WT but not Gsdmd^−/− mice (FIG. 2). […] P-selectin deficiency led to an approximately 50% reduction in pulmonary vaso-occlusion in SCD-Selp^−/− mice administered 10 μmole/kg IV oxy-Hb (FIG. 3), however, IV administration of oxy-Hb with GSDMD-NT inhibitor (LDC7559) led to further threefold (significant) reduction in pulmonary vaso-occlusions per FOV (FIGS. 1N and 4A, and FIG. 5) and absence of large pulmonary vaso-occlusions (area>1000 μm^2) per FOV (FIG. 10) in SCD-Selp^−/− mice.
Quantitative fluorescence intravital lung microscopy (qFILM) has been used widely for in vivo assessment of pulmonary vasoocclusion in mice with SCD [Bennewitz M F et al., (2017); Vats R, Brzoska T, Bennewitz M F, et al. (2020); Vats R, Tutuncuoglu E, Pradhan-Sundd T, Tejero J, Shaw G D, Sundd P. (2020); Bennewitz M F, Tutuncuoglu E, Gudapati S, et al. (2020)] In the current study, qFILM was used to assess pulmonary vaso-occlusion and detect NETs in the intact lung microcirculation of live mice following IV challenge with saline, oxy-hemoglobin (oxy-Hb), hemin, or lipo-polysaccharide with or without pretreatment with N-terminus active domain (GSDMD-NT) inhibitors LDC7559 [Sollberger G, Choidas A, Burn G L, et al. (2018)], NSA [Rathkey J K, Zhao J, Liu Z, et al. (2018)], Disulfiram [Hu J J, Liu X, Xia S, et al. (2020)], or the pan-caspase inhibitor Z-VAD-FMK [Sollberger G, Choidas A, Burn G L, et al. (2018)], haptoglobin [Belcher J D, Chen C, Nguyen J, et al. (2014)], or TLR4-inhibitor (TAK242) [Belcher J D, Chen C, Nguyen J, et al. (2014)]. qFILM was conducted with a Nikon multiphoton excitation fluorescence microscope and an APO LWD 25×water immersion objective with 1.1 NA. […]

[1] = IV 10 μmole/kg oxy-Hb with inhibitor vs oxy-Hb alone, NSA 20 mg/kg
[2] = IV 10 μmole/kg oxy-Hb with inhibitor, NSA 20 mg/kg

COc1ccccc1-c1cc2n(n1)Cc1ccc(NC(C)=O)cc1OC2 [LDC7559]
Number of PVOs per Field of View (#PVOs/FOV) [1]: significantly less; also recorded: significantly reduced | number of large PVOs (with area>1000 μm^2) per FOV [1]: significantly less; also recorded: significantly reduced | blood flow in the lung (rapidly transiting erythrocytes) [2]: significantly improved | lung vaso-occlusion in representative qFILM images [2]: absence of lung vaso-occlusion; also recorded: lack of pulmonary vaso-occlusion | large neutrophil-platelet aggregates occluding the arteriolar bottle-necks in the lung (IV 10 μmole/kg oxy-Hb with inhibitor, Necrosulfonamide 20 mg/kg): rare
